Data on two compounds can be found in US20230173087A1, “ANTIBODY DRUG CONJUGATES WITH CLEAVABLE LINKERS” (Heidelberg Pharma Research GmbH, priority 2019, published 2023).

In assay [1] the test system is SKBR-3 (breast cancer) cells. Nature of the assay: Cytotoxicity, chemiluminescent BrdU-ELISA incorporation assay on SKBR-3 cells. It counts as cell-based. As to conditions: as antibody conjugate.
Method: Cytotoxic activity of Trastuzumab (Anti-Her2neu-specific antibody)-amatoxin conjugates was evaluated in vitro on HER2-positive tumor cell lines SKBR-3 (breast cancer), NCI-N87 (gastric cancer), and JIMT-1 (breast cancer) using a chemiluminescent BrdU-ELISA incorporation assay (Roche).
For the next assay, the target named is RNA polymerase II (Homo sapiens, UniProt P24928+P30876). As to conditions: read-out: KD of complex between amanitin and RNA polymerase II; cited from earlier work.

In the case of `CC[C@H](C)[C@@H]1NC(=O)CNC(=O)C2Cc3c([nH]c4cc(O)ccc34)[S@+]([O-])CC(NC(=O)CNC1=O)C(=O)NC(CC(N)=O)C(=O)N1CC(O)CC1C(=O)N[C@@H]([C@@H](C)[C@@H]1COC(c3ccc(NC(=O)[C@H](C)NC(=O)C(NC(=O)CCN4C(=O)C=CC4=O)C(C)C)cc3)O1)C(=O)N2` (stereo partly drawn) [HDP 30.2684, α-Amanitin-(BMP-Val-Ala-4-amino-benzylidenacetal)], the “effectiveness in vitro compared to HDP 30.1699” value in assay [1] was “as effective as HDP 30.1699”.
On to amanitin, for which, at RNA polymerase II, the Kd was 3 nM.
